How the values were obtained:
[1] = Inhibition of APP (unknown origin); set-up: species or system Homo sapiens
[2] = molecular target: Angiotensin-converting enzyme (Homo sapiens, UniProt P12821); assay: Inhibition of human plasma ACE
[3] = Plasma protein binding in human; format: ADME, cell-free; settings: read-out: PPB (converted)
[4] = Plasma protein binding in mouse; format: ADME, cell-free; settings: read-out: PPB (converted)
[5] = Plasma protein binding in rat; format: ADME, cell-free; settings: read-out: PPB (converted)
Neprilysin = Neprilysin (Homo sapiens, UniProt P08473); assay: Inhibition of NEP (unknown origin)
Chain of Neprilysin (P08473 whole entry): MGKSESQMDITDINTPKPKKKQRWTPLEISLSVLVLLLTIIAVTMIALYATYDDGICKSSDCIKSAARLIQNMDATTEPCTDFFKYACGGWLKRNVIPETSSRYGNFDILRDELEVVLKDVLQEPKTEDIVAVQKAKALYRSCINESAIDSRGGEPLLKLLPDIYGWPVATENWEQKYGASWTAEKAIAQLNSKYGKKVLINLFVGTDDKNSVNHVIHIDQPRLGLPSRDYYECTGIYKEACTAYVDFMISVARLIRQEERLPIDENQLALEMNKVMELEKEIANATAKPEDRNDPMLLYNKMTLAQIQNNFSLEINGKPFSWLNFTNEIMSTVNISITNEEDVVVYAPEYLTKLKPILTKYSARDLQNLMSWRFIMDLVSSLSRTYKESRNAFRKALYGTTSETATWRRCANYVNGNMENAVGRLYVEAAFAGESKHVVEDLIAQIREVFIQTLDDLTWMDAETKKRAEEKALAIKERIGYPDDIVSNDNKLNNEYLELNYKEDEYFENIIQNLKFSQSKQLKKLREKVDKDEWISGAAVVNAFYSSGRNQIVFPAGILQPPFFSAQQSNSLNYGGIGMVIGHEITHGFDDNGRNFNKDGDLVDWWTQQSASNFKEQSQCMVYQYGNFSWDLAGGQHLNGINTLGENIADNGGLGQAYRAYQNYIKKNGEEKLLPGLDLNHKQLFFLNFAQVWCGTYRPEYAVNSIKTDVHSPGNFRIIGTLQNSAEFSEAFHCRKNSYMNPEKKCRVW

Aminopeptidase N = Aminopeptidase N (Homo sapiens, UniProt P15144); assay: Inhibition of APN (unknown origin)
Chain of Aminopeptidase N (P15144 whole entry): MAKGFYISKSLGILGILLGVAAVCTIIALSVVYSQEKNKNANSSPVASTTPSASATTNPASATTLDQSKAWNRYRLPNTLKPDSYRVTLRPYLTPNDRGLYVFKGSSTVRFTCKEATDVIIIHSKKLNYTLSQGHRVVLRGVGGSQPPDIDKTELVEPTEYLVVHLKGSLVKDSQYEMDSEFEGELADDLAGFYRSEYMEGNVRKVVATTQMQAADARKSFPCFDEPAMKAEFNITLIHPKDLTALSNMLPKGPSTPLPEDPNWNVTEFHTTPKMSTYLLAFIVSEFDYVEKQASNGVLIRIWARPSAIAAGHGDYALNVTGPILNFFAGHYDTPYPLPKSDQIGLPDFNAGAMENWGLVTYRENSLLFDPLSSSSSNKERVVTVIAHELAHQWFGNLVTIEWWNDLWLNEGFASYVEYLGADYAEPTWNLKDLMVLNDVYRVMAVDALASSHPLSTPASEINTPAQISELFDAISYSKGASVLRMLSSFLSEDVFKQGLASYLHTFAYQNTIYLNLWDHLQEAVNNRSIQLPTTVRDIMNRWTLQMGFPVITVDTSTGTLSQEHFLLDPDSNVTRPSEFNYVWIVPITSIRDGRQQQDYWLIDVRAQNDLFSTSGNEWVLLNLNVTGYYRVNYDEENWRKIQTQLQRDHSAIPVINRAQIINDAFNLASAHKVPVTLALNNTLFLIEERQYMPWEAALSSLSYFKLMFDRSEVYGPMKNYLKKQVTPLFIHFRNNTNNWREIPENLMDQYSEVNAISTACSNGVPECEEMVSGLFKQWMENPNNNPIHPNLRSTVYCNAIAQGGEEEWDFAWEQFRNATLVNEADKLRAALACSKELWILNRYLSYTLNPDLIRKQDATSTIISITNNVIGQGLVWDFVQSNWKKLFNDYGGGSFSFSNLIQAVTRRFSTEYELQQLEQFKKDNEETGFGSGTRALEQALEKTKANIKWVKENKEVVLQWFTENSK

Dipeptidyl peptidase 4 = Dipeptidyl peptidase 4 (Homo sapiens, UniProt P27487); assay: Inhibition of human plasma DPP4
Chain of Dipeptidyl peptidase 4 (P27487 whole entry): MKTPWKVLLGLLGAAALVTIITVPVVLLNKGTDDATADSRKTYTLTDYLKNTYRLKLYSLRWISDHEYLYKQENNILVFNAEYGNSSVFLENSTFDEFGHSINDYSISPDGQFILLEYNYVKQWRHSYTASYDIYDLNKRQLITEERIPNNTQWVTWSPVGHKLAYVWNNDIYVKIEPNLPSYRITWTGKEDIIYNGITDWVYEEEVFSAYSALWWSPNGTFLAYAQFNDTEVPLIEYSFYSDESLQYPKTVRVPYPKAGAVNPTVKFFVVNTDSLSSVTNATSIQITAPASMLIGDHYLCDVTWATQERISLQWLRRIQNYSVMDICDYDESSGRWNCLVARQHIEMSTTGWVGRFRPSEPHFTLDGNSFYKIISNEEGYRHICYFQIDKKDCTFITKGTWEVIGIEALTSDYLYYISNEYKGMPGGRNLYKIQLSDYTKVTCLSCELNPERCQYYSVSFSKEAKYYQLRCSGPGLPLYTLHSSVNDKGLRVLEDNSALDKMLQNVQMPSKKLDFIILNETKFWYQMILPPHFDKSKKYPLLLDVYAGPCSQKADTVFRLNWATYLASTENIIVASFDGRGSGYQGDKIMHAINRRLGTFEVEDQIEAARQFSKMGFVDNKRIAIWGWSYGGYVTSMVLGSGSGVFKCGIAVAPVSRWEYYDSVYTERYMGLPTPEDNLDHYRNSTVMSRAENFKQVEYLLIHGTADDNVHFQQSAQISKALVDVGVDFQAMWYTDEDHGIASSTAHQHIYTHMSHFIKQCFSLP

Chain of Angiotensin-converting enzyme (P12821 whole entry): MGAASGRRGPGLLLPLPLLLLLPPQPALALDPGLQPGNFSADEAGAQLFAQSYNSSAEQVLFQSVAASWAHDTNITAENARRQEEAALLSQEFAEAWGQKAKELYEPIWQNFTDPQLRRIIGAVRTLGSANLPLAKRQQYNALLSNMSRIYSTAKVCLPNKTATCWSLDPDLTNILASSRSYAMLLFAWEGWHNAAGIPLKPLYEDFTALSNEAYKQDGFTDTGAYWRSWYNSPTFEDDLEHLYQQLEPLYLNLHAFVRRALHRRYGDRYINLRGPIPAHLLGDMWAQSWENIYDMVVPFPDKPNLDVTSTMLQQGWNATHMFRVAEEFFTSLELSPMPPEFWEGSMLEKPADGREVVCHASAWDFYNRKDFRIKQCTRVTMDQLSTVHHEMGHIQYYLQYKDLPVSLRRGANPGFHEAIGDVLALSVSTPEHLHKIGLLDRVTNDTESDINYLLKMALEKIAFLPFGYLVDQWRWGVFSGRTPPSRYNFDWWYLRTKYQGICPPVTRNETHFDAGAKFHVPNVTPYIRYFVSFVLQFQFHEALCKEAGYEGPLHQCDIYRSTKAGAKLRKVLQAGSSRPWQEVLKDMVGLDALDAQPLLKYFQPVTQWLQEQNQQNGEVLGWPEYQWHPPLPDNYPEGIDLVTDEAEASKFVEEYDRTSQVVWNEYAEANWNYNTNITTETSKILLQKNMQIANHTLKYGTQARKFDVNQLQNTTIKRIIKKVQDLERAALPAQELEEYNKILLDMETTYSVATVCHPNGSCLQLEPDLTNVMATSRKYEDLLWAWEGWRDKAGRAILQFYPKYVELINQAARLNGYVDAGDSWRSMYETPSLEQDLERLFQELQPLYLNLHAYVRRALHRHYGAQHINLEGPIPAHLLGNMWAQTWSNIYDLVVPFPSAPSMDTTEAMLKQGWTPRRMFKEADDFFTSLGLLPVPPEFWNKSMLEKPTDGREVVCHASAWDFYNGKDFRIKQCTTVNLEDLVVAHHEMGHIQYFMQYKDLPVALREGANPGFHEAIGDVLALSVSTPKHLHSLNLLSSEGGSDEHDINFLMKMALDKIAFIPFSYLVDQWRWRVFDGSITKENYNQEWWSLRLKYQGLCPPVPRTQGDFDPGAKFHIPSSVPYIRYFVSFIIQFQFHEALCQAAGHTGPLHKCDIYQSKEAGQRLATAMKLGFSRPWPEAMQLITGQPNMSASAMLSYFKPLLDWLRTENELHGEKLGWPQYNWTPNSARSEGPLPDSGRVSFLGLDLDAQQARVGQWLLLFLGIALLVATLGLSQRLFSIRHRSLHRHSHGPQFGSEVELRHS

IC50 [1] [µM]	IC50 [2] [µM]	IC50 (Neprilysin) [µM]	IC50 (Aminopeptidase N) [µM]	Structure (SMILES)	fraction unbound [3]	fraction unbound [4]	fraction unbound [5]	IC50 (Dipeptidyl peptidase 4) [µM]
> 100	11	> 100	> 100	N[C@@H](CC(=O)N1CCn2c(nnc2C(F)(F)F)C1)Cc1cc(F)c(F)cc1F [SITAGLIPTIN]	0.53	0.707	0.587	
				C[C@H](N[C@@H](CCc1ccccc1)C(=O)O)C(=O)N1CCC[C@H]1C(=O)O [ENALAPRILAT ANHYDROUS]	0.341	0.424	0.456	> 100

From ChEMBL document CHEMBL4020733, “Approaches towards the development of chimeric DPP4/ACE inhibitors for treating metabolic syndrome” (Bioorg Med Chem Lett, 2017)
